According to patent US12123009B2, “Methods and compositions for PPO herbicide tolerance in plants” (Monsanto Technology LLC, priority 2015, dated 2024):

Legend:
[1] = biological target: H_N60 (SEQ ID NO: 3), microbial HemG protoporphyrinogen oxidase; assay: PPO enzyme assay (bacterial extract); details: read-out: S-3100 IC50; 3 μM protogen; pH 7.4, 37° C.
[2] = tested on: leaf discs of soybean, non-transgenic or expressing H_N10 (SEQ ID NO: 4); assay: Leaf disc assay, soybean; type: in vivo; details: 1 micromolar
Procedure: (§1) A leaf-disc assay was employed for rapid and minimally damaging assessment of herbicide tolerance in transgenic plants expressing a recombinant PPO enzyme. Leaf tissue was sampled from the youngest fully-green leaf of corn and soybean plants. Five 4-mm diameter leaf discs were cut from the leaf samples using a disposable biopsy punch with a plunger (Integra® Miltex®, Inc., York. Pennsylvania) and the leaf discs were placed into one ml of incubation solution (1 mM MES, pH 6.5, 1% w/v sucrose, 1% (v/v) acetone) in 24-well polystyrene plates with lids. For herbicide tolerance analysis, S-3100 was added to the incubation solution to a final concentration of 1 micromolar. Vacuum infiltration was applied and plates of leaf discs were incubated in continuous darkness for one day at room temperature (23-24° C.) followed by one (soybean) or two (corn) days continuous light incubation under overhead fluorescent and incandescent bulbs (520 uE) at 26-27° C. Leaf disc injury was then scored visually on a scale from 0 (lowest injury) to 4 (highest injury), with lower scores indicating better tolerance to the PPO herbicide.

[3] = biological target: H_N110 (SEQ ID NO: 10), microbial HemG protoporphyrinogen oxidase; assay: PPO enzyme assay (bacterial extract); details: read-out: S-3100 IC50; 3 μM protogen; pH 7.4, 37° C.
[4] = biological target: Maize (Zea mays) protoporphyrinogen oxidase (PPO), wild type; assay: PPO enzyme assay (plastid extract); type: biochemical; details: 3 μM protogen; pH 7.4, 30° C.; read-out: S-3100 IC50
[5] = tested on: soybean (A3555), non-transgenic or expressing H_N10 (SEQ ID NO: 4); assay: R0 soybean sprayed with S-3100; type: in vivo; details: 5 g/ha, V3, 8 days
Procedure: In soybean, excised embryos (A3555) were transformed with the transformation constructs 1 and 11 using A. tumefaciens and standard methods known in the art. […] Regenerated R0 transgenic plantlets were grown in the greenhouse. […] The herbicide was sprayed at the V3 developmental stage with three fully developed trifoliate leaves and injury ratings were assessed 8 days after treatment. The percentage of plants that were deemed highly tolerant (15% or less injury) was noted.
The herbicide was sprayed at the V3 developmental stage with three fully developed trifoliate leaves and injury ratings taken 8 days after treatment. The percentage of plants that were deemed highly tolerant (25% or less injury) was noted.

[6] = biological target: H_N70 (SEQ ID NO: 8), microbial HemG protoporphyrinogen oxidase (Pantoea phytostimulans, UniProt A0ACH3N612); assay: PPO enzyme assay (bacterial extract); details: read-out: S-3100 IC50; 3 μM protogen; pH 7.4, 37° C.
[7] = biological target: Soybean (Glycine max) protoporphyrinogen oxidase (PPO), wild type; assay: PPO enzyme assay (plastid extract); type: biochemical; details: 3 μM protogen; pH 7.4, 30° C.; read-out: S-3100 IC50
[8] = tested on: maize, non-transgenic or F1 containing H_N10 (SEQ ID NO: 4); assay: Efficacy field trial of F1 maize; type: in vivo
Procedure: This F1 population was segregating (50% hemizygous and 50% null) and selection for transgenic plants was not conducted prior to injury ratings. The overall average injury ratings for such a population are expected to be higher than a homogenous transgenic population since it is difficult to discern non-transgenic plants from transgenic plants. The trials were conducted at two locations with two replicates and 3 treatments per construct. Non-transgenic maize plants were used as a negative control. The herbicide application treatments were as follows: Treatment 1 was 0.036 lb ai/acre S-3100 applied at V2 followed by (fb) V4 fb V8; Treatment 2: was 0.072 lb ai/acre S-3100 applied at V2 fb V4 fb V8; Treatment 3: was 0.144 lb ai/acre S-3100 applied at V2 fb V4 fb V8. Crop Injury Percent ratings were assessed at the V2 growth stage (CIPV2) and at the V4 growth stage (CIPV4) at 5 to 7 days after treatment (the error V2 and error V4 are half of the least significant difference (LSD)). The crop injury ratings were combined for both locations.

[9] = tested on: leaf discs of transgenic maize expressing H_N10 (SEQ ID NO: 4); assay: Leaf disc assay, maize; type: in vivo; details: H_N10, construct 6; 1 micromolar
Procedure: as §1

[10] = tested on: transgenic maize expressing HemG PPO enzymes; assay: Transgenic Maize Herbicide Tolerance II (R0 plants sprayed); type: in vivo; details: 40 grams/ha; for Average Injury: V5, 7 days
Source text: H_N60 (SEQ ID NO:3). […] These five constructs had the same promoter plus leader plus intron combination, with two different targeting peptide (TP) sequences, and the same 3′UTR sequence. Leaf samples were taken from the R0 plants and analyzed by PCR to determine the transgene copy number. Single copy plants for up to 12 unique events per construct were transplanted to pots, selfed and outcrossed to generate R1 and F1 seed, respectively, for future testing. Multi-copy plants and extra single copy plants were sprayed with 40 grams/ha 5-3100 at approximately the V5 growth stage and injury ratings were taken 7 days after treatment. The average percent (%) injury for all plants expressing each PPO enzyme and the number of plants that were deemed highly tolerant (less than 10% injury) was noted, where each plant is a unique single or multi-copy transformant.

[11] = tested on: transgenic maize plants; assay: R0 transgenic maize 40 g/ha S-3100 spray test; type: in vivo
[12] = H_N10 (SEQ ID NO: 4), construct 11
[13] = H_N10, construct 6, Trt 1, 0.036 lb ai/acre
[14] = H_N10, construct 6, Trt 2, 0.072 lb ai/acre
[15] = H_N10, construct 6, Trt 3, 0.144 lb ai/acre
[16] = H_N10, construct 16, Trt 1, 0.036 lb ai/acre
[17] = H_N10, construct 16, Trt 2, 0.072 lb ai/acre
[18] = H_N10, construct 16, Trt 3, 0.144 lb ai/acre
[19] = wildtype, Trt 1, 0.036 lb ai/acre V2 fb V4 fb V8
[20] = wildtype, Trt 2, 0.072 lb ai/acre V2 fb V4 fb V8
[21] = wildtype, Trt 3, 0.144 lb ai/acre V2 fb V4 fb V8
[22] = 40 grams/ha S-3100 at V5, 7 days after treatment, R0 plants

Sequence of H_N70 (SEQ ID NO: 8), microbial HemG protoporphyrinogen oxidase (A0ACH3N612 entry or part of it): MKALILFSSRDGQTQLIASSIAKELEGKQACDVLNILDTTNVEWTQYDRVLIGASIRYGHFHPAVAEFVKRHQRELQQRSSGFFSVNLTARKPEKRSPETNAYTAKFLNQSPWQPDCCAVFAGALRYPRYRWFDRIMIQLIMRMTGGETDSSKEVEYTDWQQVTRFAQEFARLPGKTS

For `CCOC(=O)COc1ncccc1Oc1cc(-n2c(=O)cc(C(F)(F)F)n(C)c2=O)c(F)cc1Cl` [S-3100, ethyl [3-2-chloro-4-fluoro-5-(1-methyl-6-trifluoromethyl-2,4-dioxo-1,2,3,4-tetrahydropyrimidin-3-yl)phenoxy]-2-pyridyloxylacetate], the IC50 [1] was > 100000 nM, the “leaf disc injury rating (0 lowest to 4 highest injury)” value (“leaf disc injury rating” for short) ([2]; H_N10, construct 1) was “zero” and the “leaf disc injury rating” value ([2]; H_N10, construct 11) was 1.6. The “leaf disc injury rating” value ([2]; non-transgenic) was 2.6, the IC50 [3] was > 100000 nM and the IC50 [4] was 3 nM. The average injury rating [5, 12] was 47%, the “highly tolerant plants (25% or less injury)” value [5, 12] was 30% and the average injury rating ([5]; non-transgenic) was 60%. For the same molecule, the “highly tolerant plants (25% or less injury)” value ([5]; non-transgenic) was “no highly tolerant plants”, the IC50 [6] was > 100000 nM and the IC50 [7] was 4 nM. The “CIPV2 (Crop Injury Percent, V2)” value [8, 13] was 37.5%, the “CIPV4 (Crop Injury Percent, V4)” value [8, 13] was 0% and the “CIPV2 (Crop Injury Percent, V2)” value [8, 14] was 37.5%. The “CIPV4 (Crop Injury Percent, V4)” value [8, 14] was 0%, the “CIPV2 (Crop Injury Percent, V2)” value [8, 15] was 50% and the “CIPV4 (Crop Injury Percent, V4)” value [8, 15] was 0%. For the same molecule, the “CIPV2 (Crop Injury Percent, V2)” value [8, 16] was 96.3%, the “CIPV4 (Crop Injury Percent, V4)” value [8, 16] was 98.5% and the “CIPV2 (Crop Injury Percent, V2)” value [8, 17] was 99.5%. The “CIPV4 (Crop Injury Percent, V4)” value [8, 17] was 99.5%, the “CIPV2 (Crop Injury Percent, V2)” value [8, 18] was 99.5% and the “CIPV4 (Crop Injury Percent, V4)” value [8, 18] was 99.5%. For the same molecule, the “injury following V2 and V4 application” value ([8]; non-transgenic and construct 16, all three treatments) was 94.6-99.5%, the “CIPV2 (Crop Injury Percent, V2)” value [8, 19] was 94.6% and the “CIPV4 (Crop Injury Percent, V4)” value [8, 19] was 99%. For the same molecule, the “CIPV2 (Crop Injury Percent, V2)” value [8, 20] was 99.5%, the “CIPV4 (Crop Injury Percent, V4)” value [8, 20] was 99.5% and the “CIPV2 (Crop Injury Percent, V2)” value [8, 21] was 99.5%. For the same molecule, the “CIPV4 (Crop Injury Percent, V4)” value [8, 21] was 99.5%, the “average leaf disc score (0 lowest to 4 highest injury)” value [9] was 0.4 and the “Average Injury” value ([10]; H_N10 (SEQ ID NO 4), construct 6) was 39.5%. The “Highly Tolerant (less than 10% injury)” value ([10]; H_N10 (SEQ ID NO 4), construct 6, of 139 plants) was 31 plants, the “Average Injury” value ([10]; H_N40 (SEQ ID NO 6), construct 23) was 47.0% and the “Highly Tolerant (less than 10% injury)” value ([10]; H_N40 (SEQ ID NO 6), construct 23, of 98 plants) was 53 plants. The “Average Injury” value ([10]; H_N60 (SEQ ID NO 3), construct 20) was 55.8%, the “Highly Tolerant (less than 10% injury)” value ([10]; H_N60 (SEQ ID NO 3), construct 20, of 86 plants) was 19 plants and the “Average Injury” value ([10]; H_N90 (SEQ ID NO 1), construct 21) was 31.4%. For the same molecule, the “Highly Tolerant (less than 10% injury)” value ([10]; H_N90 (SEQ ID NO 1), construct 21, of 99 plants) was 44 plants, the “Average Injury” value ([10]; H_N110 (SEQ ID NO 10), construct 22) was 43.0% and the “Highly Tolerant (less than 10% injury)” value ([10]; H_N110 (SEQ ID NO 10), construct 22, of 94 plants) was 0 plants.

B1: H_N90: microbial HemG protoporphyrinogen oxidase, SEQ ID NO:1 (SEQ ID NO:11 lacking start methionine; variants 18, 19) (protein, listed as Enterobacter cloacae)
chain: MKALVLYSTRDGQTHAIASYIASCMKEKAECDVIDLTHGEHVNLTQYDQVLIGASIRYGHFNAVLDKFIKRNVDQLNNMPSAFFCVNLTARKPEKRTPQTNPYVRKFLLATPWQPALCGVFAGALRYPRYRWIDKVMIQLIMRMTGGETDTSKEVEYTDWEQVKKFAEDFAKLSYKKAL
In the case of B1, the “Average Injury” value [11, 22] is reported as 31.4%, the “Highly Tolerant (number of plants with less than 10% injury)” value [11, 22] is reported as 44 and the “injury rates when expressed in transgenic plants (crop tolerance to a PPO herbicide)” value ([11]; R0 transgenic maize data) is reported as “reduced injury rates”.
